“Also recorded” adds a separate entry of the source.
Tests used:
[1] = test system: retroperitoneal white adipose tissue; assay: Norepinephrine stimulation in vivo: gene expression in white fat; design: species or system mice; conditions: NE 0.3 mg/kg s.c., 4 hours after injection, 30° C.
Method: Norepinephrine Stimulation In Vivo.
To measure the norepinephrine-induced gene expression changes in white fat, the mice after 6 weeks enrichment or control housing were anesthetized with pentobarbital (90 mg/kg, i.p.) and injected with 0.3 mg/kg norepinephrine (s.c.). The mice were maintained at 30° C. throughout the experiment. Fat pads were dissected 4 h after norepinephrine injection. qRT-PCR was used to profile gene expression in white fat.

white adipose tissue = assay: Propranolol experiment: EE-induced gene program in white adipose tissue (qRT-PCR); type: in vivo, C57BL/6 mice; conditions: propranolol in drinking water (0.5 g/L), EE or control housing for 5 weeks
From the text: We randomly assigned 40 C57BL/6 mice, 3 weeks of age, to live in enriched or control cages supplied with propranolol in drinking water (0.5 g/L). We collected blood 3 weeks after enrichment and dissected fat pads after 5 weeks enrichment.

NC[C@H](O)c1ccc(O)c(O)c1 [NE, norepinephrine]
Lep expression in EE retroperitoneal white adipose tissue ([1]; EE mice): further reduced significantly | Ucp1 expression in EE retroperitoneal white adipose tissue ([1]; EE mice): highly increased | gene expression changes in control retroperitoneal white adipose tissue ([1]; control-housed mice): failed to induce significant changes

CC(C)NCC(O)COc1cccc2ccccc12 (stereo not shown) [Propranolol, propranolol]
EE-associated molecular features of white adipose tissue (white adipose tissue): efficiently blocked the molecular features associated with EE; also recorded: blocked enrichment-associated molecular features of white adipose tissue

Reference: patent US20140057837A1, “METHODS AND COMPOSITIONS FOR THE "BROWNING" OF WHITE FAT” (priority 2012, published 2014)
